Assay results taken from US20230009626A1 (ICHNOS SCIENCES S.A., priority 2018, published 2023).

Target: HPK1 (MAP4K1) (Homo sapiens, UniProt Q92918)
Assay: FRET Assay for HPK1 (MAP4K1): one step binding assay, displacement of labeled tracer
Settings: for inhibition at 1 µM: 1 μM compound; for inhibition at 1 µM / inhibition at 10 µM: FRET ratio 665/620, percent of control; for inhibition at 10 µM: 10 μM compound; for IC50: dose response curve, nonlinear regression
Procedure, shortened: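 TR-FRET tracer-displacement binding assay. GST-tagged HPK1 (10 nM) and Eu-anti-GST antibody (4 nM) were pre-incubated with compound on ice for 15 min in 50 mM HEPES pH 7.5, 10 mM MgCl2, 1 mM EGTA, 0.01% Brij-35 (3% DMSO final). Kinase Tracer 222 (20 nM) was then added for 1 h at room temperature. IC50 came from nonlinear regression of percent of control; percent inhibition was also given at 1.0 and 10.0 μM.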

Chain of HPK1 (MAP4K1) (Q92918 whole entry): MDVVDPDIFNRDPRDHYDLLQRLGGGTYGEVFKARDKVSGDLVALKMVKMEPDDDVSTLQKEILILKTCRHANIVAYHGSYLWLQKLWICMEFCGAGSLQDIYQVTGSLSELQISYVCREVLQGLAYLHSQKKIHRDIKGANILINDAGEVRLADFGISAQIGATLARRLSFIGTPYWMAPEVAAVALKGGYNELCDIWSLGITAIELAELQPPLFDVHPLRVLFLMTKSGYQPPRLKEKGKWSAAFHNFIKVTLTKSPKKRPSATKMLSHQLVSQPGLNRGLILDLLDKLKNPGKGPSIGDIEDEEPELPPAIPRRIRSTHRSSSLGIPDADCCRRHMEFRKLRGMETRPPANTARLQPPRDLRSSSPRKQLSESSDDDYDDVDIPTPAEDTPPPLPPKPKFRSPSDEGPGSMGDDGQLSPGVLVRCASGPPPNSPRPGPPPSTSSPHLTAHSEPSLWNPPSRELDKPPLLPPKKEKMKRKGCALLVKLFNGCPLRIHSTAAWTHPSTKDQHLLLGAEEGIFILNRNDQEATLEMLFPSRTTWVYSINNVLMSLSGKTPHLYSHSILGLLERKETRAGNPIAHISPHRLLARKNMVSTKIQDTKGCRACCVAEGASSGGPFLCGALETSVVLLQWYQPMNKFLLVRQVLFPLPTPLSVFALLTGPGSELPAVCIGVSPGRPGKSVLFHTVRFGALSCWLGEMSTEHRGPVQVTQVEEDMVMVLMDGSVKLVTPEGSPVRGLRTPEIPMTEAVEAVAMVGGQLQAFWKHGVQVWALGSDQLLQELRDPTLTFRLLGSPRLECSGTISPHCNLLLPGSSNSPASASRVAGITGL

| SMILES | inhibition at 1 µM | inhibition at 10 µM | IC50 |
| --- | --- | --- | --- |
| C/C(Nc1ccn(CC(C)(C)O)n1)=C1/C(=O)Nc2cnc(-c3c(C)cccc3F)cc21 [Example 141, (Z)-5-(2-Fluoro-6-methylphenyl)-3-(1-((1-(2-hydroxy-2-methylpropyl)-1H-pyrazol-3-yl)amino)ethylidene)-1H-pyrrolo[2,3-c]pyridin-2(3H)-one] | 80% | 85.9% | 0.05 to 0.1 µM |
| C/C(Nc1cc2n(n1)CCOC2)=C1/C(=O)Nc2cnc(-c3cnccc3C)cc21 [Example 146, (Z)-3-(1-((6,7-Dihydro-4H-pyrazolo[5,1-c][1,4]oxazin-2-yl)amino)ethylidene)-5-(4-methylpyridin-3-yl)-1H-pyrrolo[2,3-c]pyridin-2(3H)-one] | 80.2% | 88.7% | < 0.05 µM |
| C/C(Nc1ccn(C2CCN(C3COC3)CC2)n1)=C1/C(=O)Nc2cnc(-c3cnccc3C)cc21 [Example 147, (Z)-5-(4-Methylpyridin-3-yl)-3-(1-((1-(1-(oxetan-3-yl)piperidin-4-yl)-1H-pyrazol-3-yl)amino)ethylidene)-1H-pyrrolo[2,3-c]pyridin-2(3H)-one] | 74.9% | 75.9% | < 0.05 µM |
| C/C(Nc1cnn(C)c1)=C1/C(=O)Nc2cnc(-c3cncc(F)c3C)cc21 [Example 148, (Z)-5-(5-Fluoro-4-methylpyridin-3-yl)-3-(1-((1-methyl-1H-pyrazol-4-yl)amino)ethylidene)-1H-pyrrolo[2,3-c]pyridin-2(3H)-one] | 82.4% | 94% | < 0.05 µM |
| C/C(Nc1cc2n(n1)CC(=O)N(C(C)C)C2)=C1/C(=O)Nc2cnc(-c3cnccc3C)cc21 [Example 149, (Z)-5-Isopropyl-2-((1-(5-(4-methylpyridin-3-yl)-2-oxo-1H-pyrrolo[2,3-c]pyridin-3(2H)-ylidene)ethyl)amino)-4,5-dihydropyrazolo[1,5-a]pyrazin-6(7H)-one] | 78.7% | 81.7% | < 0.05 µM |
| C/C(Nc1cc(C(C)(C)O)n(C)n1)=C1/C(=O)Nc2cnc(-c3cnccc3C)cc21 [Example 150, (Z)-3-(1-((5-(2-Hydroxypropan-2-yl)-1-methyl-1H-pyrazol-3-yl)amino)ethylidene)-5-(4-methylpyridin-3-yl)-1H-pyrrolo[2,3-c]pyridin-2(3H)-one] | 86.7% | 86.1% | < 0.05 µM |
| C/C(Nc1cnn(C)c1)=C1/C(=O)Nc2cc(C#N)c(-c3cnccc3C)cc21 [Example 151, (Z)-3-(1-((1-Methyl-1H-pyrazol-4-yl)amino)ethylidene)-5-(4-methylpyridin-3-yl)-2-oxoindoline-6-carbonitrile] | 85.2% | 65.2% | < 0.05 µM |
| C/C(Nc1cc(C2CC2)n(C)n1)=C1/C(=O)Nc2cnc(-c3cnccc3C)cc21 [Example 152, (Z)-3-(1-((5-Cyclopropyl-1-methyl-1H-pyrazol-3-yl)amino)ethylidene)-5-(4-methylpyridin-3-yl)-1H-pyrrolo[2,3-c]pyridin-2(3H)-one] | 74.3% | 70.4% | < 0.05 µM |
| C/C(Nc1cnn(C[C@@H](C)O)c1)=C1/C(=O)Nc2cnc(-c3cnccc3C)cc21 [Example 153, (R,Z)-3-(1-((1-(2-Hydroxypropyl)-1H-pyrazol-4-yl)amino)ethylidene)-5-(4-methylpyridin-3-yl)-1H-pyrrolo[2,3-c]pyridin-2(3H)-one] | 72.5% | 80.9% | < 0.05 µM |
| C/C(Nc1ccn(C)n1)=C1/C(=O)Nc2cnc(-c3cncc(F)c3C)cc21 [Example 154, (Z)-5-(5-Fluoro-4-methylpyridin-3-yl)-3-(1-((1-methyl-1H-pyrazol-3-yl)amino)ethylidene)-1H-pyrrolo[2,3-c]pyridin-2(3H)-one] | 69% | 82.5% | 0.1 to 0.5 µM |
| CNC(=O)C(F)(F)n1ccc(N/C(C)=C2\C(=O)Nc3cnc(-c4cnccc4C)cc32)n1 [Example 155, (Z)-2,2-Difluoro-N-methyl-2-(3-((1-(5-(4-methylpyridin-3-yl)-2-oxo-1H-pyrrolo[2,3-c]pyridin-3(2H)-ylidene)ethyl)amino)-1H-pyrazol-1-yl)acetamide] | 65.1% | 68.8% | < 0.05 µM |
| C/C(Nc1cnn(C[C@H](C)O)c1)=C1/C(=O)Nc2cnc(-c3cnccc3C)cc21 [Example 156, (S,Z)-3-(1-((1-(2-Hydroxypropyl)-1H-pyrazol-4-yl)amino)ethylidene)-5-(4-methylpyridin-3-yl)-1H-pyrrolo[2,3-c]pyridin-2(3H)-one] | 60.6% | 80% | 0.05 to 0.1 µM |
| C/C(Nc1ccn(C)n1)=C1/C(=O)Nc2cccc(-c3cnccc3C)c21 [Example 157, (Z)-3-(1-((1-Methyl-1H-pyrazol-3-yl)amino)ethylidene)-4-(4-methylpyridin-3-yl)indolin-2-one] | 54.5% | 66.5% | – |
| C/C(Nc1cnn(C)c1)=C1/C(=O)Nc2cnc(-c3cccnc3C)cc21 [Example 158, (Z)-3-(1-((1-Methyl-1H-pyrazol-4-yl)amino)ethylidene)-5-(2-methylpyridin-3-yl)-1H-pyrrolo[2,3-c]pyridin-2(3H)-one] | 74.7% | 91.1% | 0.1 to 0.5 µM |
| C/C(Nc1cnn(C)c1)=C1/C(=O)Nc2cccc(-c3cnccc3C)c21 [Example 159, (Z)-3-(1-((1-Methyl-1H-pyrazol-4-yl)amino)ethylidene)-4-(4-methylpyridin-3-yl)indolin-2-one] | 62.8% | 87.4% | > 0.5 µM |
| C/C(Nc1cnn([C@H](C)C#N)c1)=C1/C(=O)Nc2cnc(-c3cnccc3C)cc21 [Example 160, (R,Z)-2-(4-((1-(5-(4-Methylpyridin-3-yl)-2-oxo-1H-pyrrolo[2,3-c]pyridin-3(2H)-ylidene)ethyl)amino)-1H-pyrazol-1-yl)propanenitrile] | 85% | 78.4% | < 0.05 µM |
| C/C(Nc1cnn(C)c1)=C1/C(=O)Nc2ccc(-c3cnccc3C)cc21 [Example 161, (Z)-3-(1-((1-Methyl-1H-pyrazol-4-yl)amino)ethylidene)-5-(4-methylpyridin-3-yl)indolin-2-one] | 81.2% | 81% | < 0.05 µM |

More lines, now with the values ahead:

| inhibition at 1 µM | inhibition at 10 µM | IC50 | SMILES |
| --- | --- | --- | --- |
| 82.3% | 78.9% | < 0.05 µM | C/C(Nc1ccn(C[C@@H](C)O)n1)=C1/C(=O)Nc2cnc(-c3cnccc3C)cc21 [Example 136, (R,Z)-3-(1-((1-(2-Hydroxypropyl)-1H-pyrazol-3-yl)amino)ethylidene)-5-(4-methylpyridin-3-yl)-1H-pyrrolo[2,3-c]pyridin-2(3H)-one] |
| 80.7% | 80.2% | < 0.05 µM | C/C(Nc1ccn([C@H](C)CO)n1)=C1/C(=O)Nc2cnc(-c3cnccc3C)cc21 [Example 137, (R,Z)-3-(1-((1-(1-Hydroxypropan-2-yl)-1H-pyrazol-3-yl)amino)ethylidene)-5-(4-methylpyridin-3-yl)-1H-pyrrolo[2,3-c]pyridin-2(3H)-one] |
| 90.7% | – | < 0.05 µM | C/C(Nc1ccn(C)n1)=C1/C(=O)Nc2cnc(-c3cncc4c3OCC(=O)N4)cc21 [Example 138, (Z)-8-(3-(1-((1-Methyl-1H-pyrazol-3-yl)amino)ethylidene)-2-oxo-2,3-dihydro-1H-pyrrolo[2,3-c]pyridin-5-yl)-2H-pyrido[4,3-b][1,4]oxazin-3(4H)-one] |
| 77% | 84.5% | < 0.05 µM | C/C(Nc1ccn(C)n1)=C1/C(=O)Nc2cc(C#N)c(-c3cnccc3C)cc21 [Example 139, (Z)-3-(1-((1-Methyl-1H-pyrazol-3-yl)amino)ethylidene)-5-(4-methylpyridin-3-yl)-2-oxoindoline-6-carbonitrile] |
| 79.8% | 91.3% | < 0.05 µM | C/C(Nc1ccn(C)n1)=C1/C(=O)Nc2cnc(-c3cncc(N)c3C)cc21 [Example 140, (Z)-5-(5-Amino-4-methylpyridin-3-yl)-3-(1-((1-methyl-1H-pyrazol-3-yl)amino)ethylidene)-1H-pyrrolo[2,3-c]pyridin-2(3H)-one] |
| 77.9% | 80.8% | < 0.05 µM | C/C(Nc1ccn(C(C)(C)C#N)n1)=C1/C(=O)Nc2cnc(-c3c(C)cccc3F)cc21 [Example 142, (Z)-2-(3-((1-(5-(2-Fluoro-6-methylphenyl)-2-oxo-1H-pyrrolo[2,3-c]pyridin-3(2H)-ylidene)ethyl)amino)-1H-pyrazol-1-yl)-2-methylpropanenitrile] |
| 80.4% | 83.8% | < 0.05 µM | COCCn1ccc(N/C(C)=C2\C(=O)Nc3cnc(-c4cnccc4C)cc32)n1 [Example 143, (Z)-3-(1-((1-(2-Methoxyethyl)-1H-pyrazol-3-yl)amino)ethylidene)-5-(4-methylpyridin-3-yl)-1H-pyrrolo[2,3-c]pyridin-2(3H)-one] |
| 80.5% | 84.6% | < 0.05 µM | COc1cccc(F)c1-c1cc2c(cn1)NC(=O)/C2=C(/C)Nc1ccn(CC(C)(C)O)n1 [Example 144, (Z)-5-(2-Fluoro-6-methoxyphenyl)-3-(1-((1-(2-hydroxy-2-methylpropyl)-1H-pyrazol-3-yl)amino)ethylidene)-1H-pyrrolo[2,3-c]pyridin-2(3H)-one] |
| 79.4% | 83.9% | < 0.05 µM | C/C(Nc1ccn(C(C)(C)CO)n1)=C1/C(=O)Nc2cnc(-c3cnccc3C)cc21 [Example 145, (Z)-3-(1-((1-(1-Hydroxy-2-methylpropan-2-yl)-1H-pyrazol-3-yl)amino)ethylidene)-5-(4-methylpyridin-3-yl)-1H-pyrrolo[2,3-c]pyridin-2(3H)-one] |
